Patent publication US20250163104A1, “MACROCYCLIC IMMUNOMODULATORS” (priority 2021, published 2025)
Where a SMILES comes first, the peptide text is derived from it. Bridges are numbered along the chain shown (N, C = ends). [ ]: non-standard residue; d: D form. The star is where a group is joined. Phe(4-COOH) = N[C@@H](Cc1ccc(C(=O)O)cc1)C(=O)O; Bip = N[C@@H](Cc1ccc(-c2ccccc2)cc1)C(=O)O; Phe(4-CN) = N#Cc1ccc(C[C@H](N)C(=O)O)cc1; Phe(3-Me) = Cc1cccc(C[C@H](N)C(=O)O)c1; Val(3-OH) = CC(C)(O)[C@H](N)C(=O)O; 4Pal = N[C@@H](Cc1ccncc1)C(=O)O; Cha = N[C@@H](CC1CCCCC1)C(=O)O; Cit = NC(=O)NCCC[C@H](N)C(=O)O; Carboxymethyl = O=C(O)C*; Orn = NCCC[C@H](N)C(=O)O; Dab = NCC[C@H](N)C(=O)O; Abu = CC[C@H](N)C(=O)O; Dap = NC[C@H](N)C(=O)O; Propargyl = C#CC*

Each compound was assayed against T1, human PD-1 / PD-L1-Ig binding on Jurkat cell line over-expressing human PD-1 (Jurkat-PD-1) (Homo sapiens, UniProt Q15116) (assay: Jurkat-PD-1 Cell Binding High-Content Screening Assay (CBA)). Conditions: Jurkat HPD1_PDL1 IC50, Jurkat-PD-1 cells, PE-labeled PD-L1-Ig 20 nM final.
T1 construct: expressed in transfected cells; host or cells: Jurkat
T1 sequence (Q15116 25-288): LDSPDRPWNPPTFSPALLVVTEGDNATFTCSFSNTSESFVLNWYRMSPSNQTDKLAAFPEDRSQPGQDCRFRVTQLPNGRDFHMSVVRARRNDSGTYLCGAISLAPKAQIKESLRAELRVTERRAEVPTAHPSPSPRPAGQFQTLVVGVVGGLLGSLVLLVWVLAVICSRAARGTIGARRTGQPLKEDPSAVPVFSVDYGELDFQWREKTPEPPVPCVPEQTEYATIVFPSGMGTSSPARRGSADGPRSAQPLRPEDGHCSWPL
Format: cell-based
Method in brief: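 Jurkat-hPD-1 cells in DMEM with 10% fetal calf serum receive test compound and are held at 37° C for 2 h. PE-labeled PD-L1-Ig is added at 20 nM final and left for 1 hour. Cells are then fixed and Hoechst-stained, and binding is measured by imaging.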

Structure (SMILES)	IC50 [µM]
CC(C)C[C@H]1NC(=O)[C@H](CCCN)NC(=O)[C@H](CCCNC(N)=O)NC(=O)[C@H](Cc2ccc(-c3ccccc3)cc2)NC(=O)[C@H](C(C)C)NC(=O)[C@H](Cc2c[nH]c3ccccc23)NC(=O)[C@H](CC(=O)O)NC(=O)[C@H](Cc2ccc(C(=O)O)cc2)NC(=O)[C@H](Cc2ccc(OCC(=O)O)cc2)NC(=O)CSC[C@@H](C(=O)N[C@@H](C)C(N)=O)NC(=O)[C@H]([C@@H](C)O)NC(=O)[C@H](C(C)C)NC(=O)[C@H](CC2CCCCC2)NC(=O)[C@H](Cc2c[nH]cn2)NC1=O [Compound 1602]	0.0238

Same assay, conditions: Jurkat-PD-1 cells, PE-labeled PD-L1-Ig 20 nM final; read-out: Jurkat HPD1_PDL1 IC50

Structure (SMILES)	IC50 [µM]
CC[C@@H](C)[C@@H]1NC(=O)[C@H](Cc2ccc(-c3ccccc3)cc2)NC(=O)[C@H](C(C)C)NC(=O)[C@H](Cc2cccc(C)c2)NC(=O)[C@H](CC(=O)O)NC(=O)[C@H](Cc2ccc(C(=O)O)cc2)NC(=O)[C@H](Cc2ccncc2)NC(=O)CSC[C@@H](C(=O)N[C@@H](C)C(N)=O)NC(=O)[C@H]([C@@H](C)O)NC(=O)[C@H](C(C)C)NC(=O)[C@H](CC2CCCCC2)NC(=O)[C@H](CCN)NC(=O)[C@@H](CC(C)C)NC(=O)[C@H](CCCN)NC1=O [Compound 1620]	0.005
CC(C)C[C@@H]1NC(=O)[C@H](CCN)NC(=O)[C@@H](CC(C)C)NC(=O)[C@H](CCCN)NC(=O)[C@H](CCCNC(N)=O)NC(=O)[C@H](Cc2ccc(-c3ccccc3)cc2)NC(=O)[C@H](C(C)C)NC(=O)[C@H](Cc2c[nH]c3ccccc23)NC(=O)[C@H](CC(=O)O)NC(=O)[C@H](Cc2ccc(OCC(=O)O)cc2)NC(=O)[C@H](CN)NC(=O)CSC[C@@H](C(=O)N[C@@H](C)C(N)=O)NC(=O)[C@H]([C@@H](C)O)NC(=O)[C@H](C(C)C)NC1=O [Compound 1241] ({CH2CO}-[Dap]Y(Carboxymethyl)DWV[Bip][Cit][Orn][dL][Dab]LVTCA-NH2; thioether N-14)	0.0278
CC[C@H](C)[C@@H]1NC(=O)[C@H](Cc2ccc(-c3ccccc3)cc2)NC(=O)[C@H](C(C)C)NC(=O)[C@H](Cc2cccc(C)c2)NC(=O)[C@H](CC(=O)O)NC(=O)[C@H](Cc2ccncc2)NC(=O)[C@H](Cc2ccc(OCC(=O)O)cc2)NC(=O)CSC[C@@H](C(=O)N[C@@H](C)C(N)=O)NC(=O)[C@H]([C@@H](C)O)NC(=O)[C@H](C(C)C)NC(=O)[C@H](CC2CCCCC2)NC(=O)[C@H](CCN)NC(=O)[C@@H](CC(C)C)NC(=O)[C@H](CCCN)NC1=O [Compound 1330]	0.0128
Cc1cccc(C[C@@H]2NC(=O)[C@H](CC(=O)O)NC(=O)[C@H](Cc3ccc(OCC(=O)O)cc3)NC(=O)[C@H](CN)NC(=O)CSC[C@@H](C(=O)N[C@@H](C)C(N)=O)NC(=O)[C@H]([C@@H](C)O)NC(=O)[C@H](C(C)C)NC(=O)[C@H](CC3CCCCC3)NC(=O)[C@H](CCN)NC(=O)[C@@H](CC(C)C)NC(=O)[C@H](CCCN)NC(=O)[C@H](CCN)NC(=O)[C@H](Cc3ccc(-c4ccccc4)cc3)NC(=O)[C@H](C(C)C)NC2=O)c1 [Compound 1309] ({CH2CO}-[Dap]Y(Carboxymethyl)D[Phe(3-Me)]V[Bip][Dab][Orn][dL][Dab][Cha]VTCA-NH2; thioether N-14)	0.0484

Next, values leading:

IC50 [µM]	Structure (SMILES)
0.0023	C#CCOc1ccc(C[C@@H]2NC(=O)[C@H](Cc3ccc(-c4ccccc4)cc3)NC(=O)[C@H](Cc3ccc(C(=O)O)cc3)NC(=O)[C@H](Cc3cccc(C)c3)NC(=O)[C@H](CC(=O)O)NC(=O)[C@H](Cc3ccc(C(=O)O)cc3)NC(=O)[C@H](CC)NC(=O)CSC[C@@H](C(=O)N[C@@H](CCN)C(N)=O)NC(=O)[C@H](CCC(=O)O)NC(=O)[C@H](C(C)C)NC(=O)[C@H](CC3CCCCC3)NC(=O)[C@H](CCN)NC(=O)[C@@H](CC(C)C)NC(=O)[C@H](CCCN)NC2=O)cc1 [Compound 1839] ({CH2CO}-[Abu][Phe(4-COOH)]D[Phe(3-Me)][Phe(4-COOH)][Bip]Y(Propargyl)[Orn][dL][Dab][Cha]VEC[Dab]-NH2; thioether N-14)
0.191	C#CCOc1ccc(C[C@@H]2NC(=O)[C@H](C(C)C)NC(=O)[C@H](CC3CCCCC3)NC(=O)[C@H](CCN)NC(=O)[C@@H](CC(C)C)NC(=O)[C@H](CCCN)NC(=O)[C@H](Cc3ccc(OCC(=O)O)cc3)NC(=O)[C@H](Cc3ccc(-c4ccccc4)cc3)NC(=O)[C@H](Cc3ccc(OCC(=O)O)cc3)NC(=O)[C@H](Cc3cccc(C)c3)NC(=O)[C@H](CC(=O)O)NC(=O)[C@H](Cc3ccc(OCC(=O)O)cc3)NC(=O)[C@H](Cc3ccncc3)NC(=O)CSC[C@@H](C(=O)N[C@@H](CCN)C(N)=O)NC2=O)cc1 [Compound 1821] ({CH2CO}-[4Pal]Y(Carboxymethyl)D[Phe(3-Me)]Y(Carboxymethyl)[Bip]Y(Carboxymethyl)[Orn][dL][Dab][Cha]VY(Propargyl)C[Dab]-NH2; thioether N-14)
0.052	CC[C@H](C)[C@@H]1NC(=O)[C@H](Cc2ccc(-c3ccccc3)cc2)NC(=O)[C@H](C(C)C)NC(=O)[C@H](Cc2c[nH]c3ccccc23)NC(=O)[C@H](CC(=O)O)NC(=O)[C@H](Cc2ccc(OCC(=O)O)cc2)NC(=O)[C@H](CN)NC(=O)CSC[C@@H](C(=O)N[C@@H](C)C(N)=O)NC(=O)[C@H]([C@@H](C)O)NC(=O)[C@H](C(C)C)NC(=O)[C@H](Cc2ccc(O)cc2)NC(=O)[C@H](CCN)NC(=O)[C@@H](CC(C)C)NC(=O)[C@H](CCCN)NC1=O [Compound 1678] ({CH2CO}-[Dap]Y(Carboxymethyl)DWV[Bip]I[Orn][dL][Dab]YVTCA-NH2; thioether N-14)
0.101	Cc1cccc(C[C@@H]2NC(=O)[C@H](CC(N)=O)NC(=O)[C@H](Cc3ccc(C(=O)O)cc3)NC(=O)[C@H](CCN)NC(=O)CSC[C@@H](C(=O)N[C@@H](CCN)C(N)=O)NC(=O)[C@H](CO)NC(=O)[C@H](C(C)(C)O)NC(=O)[C@H](CC3CCCCC3)NC(=O)[C@H](CCN)NC(=O)[C@@H](CC(C)C)NC(=O)[C@H](CCCN)NC(=O)[C@H](Cc3ccc(C(=O)O)cc3)NC(=O)[C@H](Cc3ccc(-c4ccccc4)cc3)NC(=O)[C@H](Cc3ccc(C(=O)O)cc3)NC2=O)c1 [Example 2720] ({CH2CO}-[Dab][Phe(4-COOH)]N[Phe(3-Me)][Phe(4-COOH)][Bip][Phe(4-COOH)][Orn][dL][Dab][Cha][Val(3-OH)]SC[Dab]-NH2; thioether N-14)
0.139	CC(C)C[C@H]1NC(=O)[C@H](CCCN)NC(=O)[C@H](CCCCN)NC(=O)[C@H](Cc2ccc(-c3ccccc3)cc2)NC(=O)[C@H](C(C)C)NC(=O)[C@H](Cc2c[nH]c3ccccc23)NC(=O)[C@H](CC(=O)O)NC(=O)[C@H](Cc2ccncc2)NC(=O)[C@H](CN)NC(=O)CSC[C@@H](C(=O)N[C@@H](CCCN)C(N)=O)NC(=O)[C@H](CN)NC(=O)[C@H](C(C)C)NC(=O)[C@H](CC2CCCCC2)NC(=O)[C@H](CCN)NC1=O [Compound 2251] ({CH2CO}-[Dap][4Pal]DWV[Bip]K[Orn][dL][Dab][Cha]V[Dap]C[Orn]-NH2; thioether N-14)
0.0281	CC(C)C[C@H]1NC(=O)[C@H](CCCN)NC(=O)[C@H](CCC(=O)O)NC(=O)[C@H](Cc2ccc(-c3ccccc3)cc2)NC(=O)[C@H](C(C)C)NC(=O)[C@H](Cc2c[nH]c3ccccc23)NC(=O)[C@H](CC(=O)O)NC(=O)[C@H](Cc2ccc(C#N)cc2)NC(=O)[C@H](CC(N)=O)NC(=O)CSC[C@@H](C(=O)N[C@@H](C)C(N)=O)NC(=O)[C@H]([C@@H](C)O)NC(=O)[C@H](C(C)C)NC(=O)[C@H](CC2CCCCC2)NC(=O)[C@H](CCN)NC1=O [Compound 2185] ({CH2CO}-N[Phe(4-CN)]DWV[Bip]E[Orn][dL][Dab][Cha]VTCA-NH2; thioether N-14)
